From US8889684B2, “Azaindolylphenyl sulfonamides as serine/threonine kinase inhibitors” (Boehringer Ingelheim International GmbH, priority 2011, dated 2014)

Tests used:
[1] = tested on: SK-MEL-28 cells; assay: Inhibition of the proliferation of cultivated human melanoma cells (SK-MEL-28, B-RAF V600E mutated); type: cell-based; details: 72 h incubation, AlamarBlue
Method: Measurement of the Inhibition of the Proliferation of Cultivated Human Melanoma cells (SK-MEL-28, B-RAF^V600E Mutated)
SK-MEL-28 cells are placed in 96-well flat bottomed dishes in a density of 2500 cells per well in supplemented MEM medium (see above) and incubated overnight in an incubator (at 37° C. and 5% CO2). […] After an incubation period of a further 72 h 20 μL AlamarBlue reagent (Serotec Ltd., #BUF012B) are added to each well and the cells are incubated for a further 3-6 h. The colour change of the AlamarBlue reagent is determined in a fluorescence spectrophotometer (e.g. Gemini, Molecular Devices). EC50 values are calculated using a software program (GraphPadPrizm).

[2] = molecular target: B-Raf (V600E)-kinase (Homo sapiens (Human), UniProt P15056, V600E); assay: Kinase test B-Raf (V600E); type: biochemical; details: 250 μM ATP, biotinylated MEK1 substrate
Chain of B-Raf (V600E)-kinase (P15056 whole entry V600E): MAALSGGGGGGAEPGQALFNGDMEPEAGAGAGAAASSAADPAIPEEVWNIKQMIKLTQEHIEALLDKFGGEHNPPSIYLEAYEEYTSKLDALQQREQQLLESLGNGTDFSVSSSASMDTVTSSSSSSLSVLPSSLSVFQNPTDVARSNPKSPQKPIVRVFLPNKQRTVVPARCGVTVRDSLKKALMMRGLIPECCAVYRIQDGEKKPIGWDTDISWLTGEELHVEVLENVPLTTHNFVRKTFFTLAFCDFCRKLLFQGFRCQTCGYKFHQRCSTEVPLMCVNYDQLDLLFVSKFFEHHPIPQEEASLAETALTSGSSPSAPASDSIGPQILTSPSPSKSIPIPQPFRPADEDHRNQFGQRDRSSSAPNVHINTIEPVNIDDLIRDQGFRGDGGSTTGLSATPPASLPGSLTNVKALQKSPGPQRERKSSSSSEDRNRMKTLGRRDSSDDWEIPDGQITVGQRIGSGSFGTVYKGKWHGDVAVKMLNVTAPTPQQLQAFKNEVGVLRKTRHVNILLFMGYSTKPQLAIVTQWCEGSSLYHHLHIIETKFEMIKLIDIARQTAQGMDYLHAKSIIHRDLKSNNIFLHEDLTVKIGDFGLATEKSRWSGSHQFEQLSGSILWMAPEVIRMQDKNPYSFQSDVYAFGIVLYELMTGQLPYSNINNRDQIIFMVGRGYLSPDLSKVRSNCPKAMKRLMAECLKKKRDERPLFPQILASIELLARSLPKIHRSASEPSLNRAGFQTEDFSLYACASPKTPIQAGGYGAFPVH
Method: Kinase test B-Raf (V600E)
In a dilution series 10 μL/well of test substance solution are placed in a multiwell plate. The dilution series is selected so that generally a range of concentrations of 2 μM to 0.119 nM or 0.017 nM is covered. If necessary the initial concentration of 2 μM is changed to 50 μM, 10 μM, 0.4 μM or 0.2857 μM and further dilution is carried out accordingly. The final concentration of DMSO is 5%. 10 μL/well of the B-Raf (V600E)-kinase solution are pipetted in (containing 0.5 ng B-Raf (V600E)-kinase, e.g. from Upstate) in 20 mM Tris-HCl pH 7.5, 0.1 mM EDTA, 0.1 mM EGTA, 0.286 mM sodium orthovanadate, 10% glycerol, 1 mg/mL bovine serum albumin, 1 mM dithiothreitol) and the mixture is incubated for 1 h at RT with shaking. The kinase reaction is started by the addition of 20 μL/well ATP solution [final concentration: 250 μM ATP, 30 mM Tris-HCl pH 7.5, 0.02% Brij, 0.2 mM sodium orthovanadate, 10 mM magnesium acetate, 0.1 mM EGTA, phosphatase cocktail (Sigma, #P2850, dilution recommended by the manufacturer)] and 10 μL/well MEK1 solution [containing 50 ng biotinylated MEK1 (prepared from purified MEK1 according to standard procedure, e.g. with EZ-Link Sulpho-NHS-LC-Biotin reagent, Pierce, #21335)] and carried out for 60 min at RT with constant shaking. The reaction is stopped by the addition of 12 μL/well of a 100 mM EDTA solution and incubation is continued for a further 5 min. 55 μL/well of the reaction solution are transferred into a streptavidin-coated plate (e.g. Streptawell HighBond, Roche, #11989685001) and gently shaken for 1 h at RT in order to bind biotinylated MEK1 to the plate. After elimination of the liquid the plate is washed five times with 200 μL/well of 1×PBS and 100 μL/well solution of primary antibody plus europium-labelled secondary antibody [Anti Phospho-MEK (Ser217/221), Cell Signaling, #9121 and Eu—N1 labelled goat-anti-rabbit antibody, Perkin Elmer, #AD0105] is added, the primary antibody is diluted 1:2000 and the secondary antibody is diluted to 0.4-0.5 μg/mL in Delfia Assay Buffer (Perkin Elmer, #1244-111). After 1 h shaking at RT the solution is poured away and washed five times with 200 μL/well Delfia Wash Buffer (Perkin Elmer, #4010-0010/#1244-114). After the addition of 200 μL/well Enhancement Solution (Perkin Elmer, #4001-0010/#1244-105) the mixture is shaken for 10 min at RT and then measured in a Wallac Victor using the program “Delfia Time Resolved Fluorescence (Europium)”. IC50 values are obtained from these dosage-activity curves using a software program (GraphPadPrizm).

Row | SMILES | EC50 [1] [µM] | IC50 [2] [µM]
1 | CCCS(=O)(=O)Nc1ccc(F)c(-n2cc(-c3cncc(OC)c3)c3nc(N4CCN(C)CC4)ccc32)c1F [I-3] | 0.114 | 0.297
2 | CCCS(=O)(=O)Nc1ccc(F)c(-n2cc(-c3cncc(OC)c3)c3nc(N4CCN(CCOC)CC4)ccc32)c1F [I-4] | 0.063 | 0.125
3 | CCCS(=O)(=O)Nc1ccc(F)c(-n2cc(-c3cncc(OC)c3)c3nc(N(C)C4CCN(C)CC4)cnc32)c1F [I-5] | 0.041 | 0.016
4 | CCCS(=O)(=O)Nc1ccc(F)c(-n2cc(-c3cncc(OC)c3)c3nc(N4CCN(C)CC4)ncc32)c1F [I-6] | 0.121 | 1.61
5 | CCCS(=O)(=O)Nc1ccc(F)c(-n2cc(-c3cncc(OC)c3)c3nc(N(C)C4CCN(C)CC4)ncc32)c1F [I-7] | 0.04 | 0.007
6 | CCCS(=O)(=O)Nc1ccc(F)c(-n2cc(-c3cncnc3)c3nc(N(C)C4CCN(C)CC4)ncc32)c1F [I-8] | 0.006 | 0.004
7 | CCCS(=O)(=O)Nc1ccc(F)c(-n2cc(-c3cncnc3)c3nc(N(C)C4CCN(CC)CC4)ncc32)c1F [I-9] | 0.011 | 0.016
8 | CCCS(=O)(=O)Nc1ccc(F)c(-n2cc(-c3cncnc3)c3nc(N(C)C4CCN(C5CC5)CC4)ncc32)c1F [I-10] |  | 0.029
9 | CCCS(=O)(=O)Nc1ccc(F)c(-n2cc(-c3cncnc3)c3nc(N(C)C4CCN(CCOC)CC4)ncc32)c1F [I-11] | 0.021 | 0.042
10 | CCCS(=O)(=O)Nc1ccc(F)c(-n2cc(-c3cncnc3)c3nc(N(C)C4CCNCC4)ncc32)c1F [I-12] | 0.06 | 0.041
11 | CCCS(=O)(=O)Nc1ccc(F)c(-n2cc(-c3cncnc3)c3nc(N(C)C4CCN(C(=O)OC(C)(C)C)CC4)ccc32)c1F [I-13] | 0.086 | 
12 | CCCS(=O)(=O)Nc1ccc(F)c(-n2cc(-c3cncnc3)c3nc(N(C)C4CCNCC4)ccc32)c1F [I-14] | 0.006 | 
13 | O=S(=O)(CC1CCCO1)Nc1ccc(F)c(-n2cc(-c3cncnc3)c3nc(N4CCNCC4)ccc32)c1F (stereo not drawn) [I-15] | 0.181 | 
14 | CCN1CCN(c2ccc3c(n2)c(-c2cncnc2)cn3-c2c(F)ccc(NS(=O)(=O)CC3CCCO3)c2F)CC1 (stereo not drawn) [I-16] | 0.491 | 
15 | CN1CCN(c2ccc3c(n2)c(-c2cncnc2)cn3-c2c(F)ccc(NS(=O)(=O)CC3CCCO3)c2F)CC1 (stereo not drawn) [I-17] | 0.386 | 
16 | CCN1CCN(c2ccc3c(n2)c(-c2cncnc2)cn3-c2c(F)ccc(NS(=O)(=O)CC3CC3)c2F)CC1 [I-18] | 0.09 | 
17 | CN(c1ncc2c(n1)c(-c1cncnc1)cn2-c1c(F)ccc(NS(=O)(=O)CC2CC2)c1F)C1CCNCC1 [I-19] | 0.11 | 
18 | CN1CCN(c2ccc3c(n2)c(-c2cncnc2)cn3-c2c(F)ccc(NS(=O)(=O)CC3CC3)c2F)CC1 [I-20] | 0.072 | 
19 | CCCS(=O)(=O)Nc1ccc(F)c(-n2cc(-c3cncnc3)c3nc(N4CCN(CC)CC4)ncc32)c1F [I-21] | 0.089 | 
20 | CN(c1ccc2c(n1)c(-c1cncnc1)cn2-c1c(F)ccc(NS(=O)(=O)C2CC2)c1F)C1CCN(C(=O)OC(C)(C)C)CC1 [I-22] | 0.112 | 
21 | CCCS(=O)(=O)Nc1ccc(F)c(-n2cc(-c3cncnc3)c3nc(N4CCN(CC)CC4)ccc32)c1F [I-23] | 0.04 | 
22 | CCCS(=O)(=O)Nc1ccc(F)c(-n2cc(-c3cncnc3)c3nc(N4CCN(C)CC4)ncc32)c1F [I-24] | 0.068 | 
23 | O=S(=O)(CC1CC1)Nc1ccc(F)c(-n2cc(-c3cncnc3)c3nc(N4CCNCC4)ccc32)c1F [I-25] | 0.027 | 

Row | SMILES | EC50 [1] [µM] | IC50 [2] [µM]
24 | CCCS(=O)(=O)Nc1ccc(F)c(-n2cc(-c3cncnc3)c3nc(N4CCNCC4)ncc32)c1F [I-26] | 0.073 | 
25 | CCCS(=O)(=O)Nc1ccc(F)c(-n2cc(-c3cncnc3)c3nc(N4CCN(CC5CC5)CC4)ncc32)c1F [I-27] | 0.054 | 
26 | CN(c1ncc2c(n1)c(-c1cncnc1)cn2-c1c(F)ccc(NS(=O)(=O)CC2CC2)c1F)C1CCN(CC2CC2)CC1 [I-28] | 0.007 | 
27 | CCCS(=O)(=O)Nc1ccc(F)c(-n2cc(-c3cncnc3)c3nc(N4CCN(C5CC5)CC4)ccc32)c1F [I-29] | 0.041 | 
28 | CCCS(=O)(=O)Nc1ccc(F)c(-n2cc(-c3cncnc3)c3nc(N(C)C4CCN(C)CC4)ccc32)c1F [I-30] | 0.002 | 
29 | CCCS(=O)(=O)Nc1ccc(F)c(-n2cc(-c3cncnc3)c3nc(N4CCN(CC5CC5)CC4)ccc32)c1F [I-31] | 0.031 | 
30 | CN1CCC(N(C)c2ccc3c(n2)c(-c2cncnc2)cn3-c2c(F)ccc(NS(=O)(=O)C3CC3)c2F)CC1 [I-32] | 0.002 | 
31 | CCCS(=O)(=O)Nc1ccc(F)c(-n2cc(-c3cncnc3)c3nc(N4CCNCC4)ccc32)c1F [I-33] | 0.014 | 
32 | CCCN1CCC(N(C)c2ccc3c(n2)c(-c2cncnc2)cn3-c2c(F)ccc(NS(=O)(=O)CCC)c2F)CC1 [I-34] | 0.002 | 
33 | CCCS(=O)(=O)Nc1ccc(F)c(-n2cc(-c3cncnc3)c3nc(N(C)C4CCN(CCOC)CC4)c(F)cc32)c1F [I-35] | 0.006 | 
34 | CCCS(=O)(=O)Nc1ccc(F)c(-n2cc(-c3cncnc3)c3nc(N(C)C4CCN(CC(C)(C)O)CC4)c(F)cc32)c1F [I-36] | 0.007 | 
35 | CCCS(=O)(=O)Nc1ccc(F)c(-n2cc(-c3cncnc3)c3nc(N(C)C4CCN(CC5CC5)CC4)ccc32)c1F [I-37] | 0.002 | 
36 | CCCS(=O)(=O)Nc1ccc(F)c(-n2cc(-c3cncnc3)c3nc(N(C)C4CCN(C5COC5)CC4)ncc32)c1F [I-38] | 0.005 | 
37 | CN(c1ncc2c(n1)c(-c1cncnc1)cn2-c1c(F)ccc(NS(=O)(=O)c2ccoc2)c1F)C1CCN(CC2CC2)CC1 [I-39] | 0.00047 | 
38 | CCCS(=O)(=O)Nc1ccc(F)c(-n2cc(-c3cncnc3)c3nc(N(C)C4CCN(CC)CC4)c(F)cc32)c1F [I-40] | 0.003 | 
39 | [2H]C([2H])([2H])N(c1ccc2c(n1)c(-c1cncnc1)cn2-c1c(F)ccc(NS(=O)(=O)CCC)c1F)C1CCN(CC)CC1 [I-41] | 0.001 | 
40 | CCCS(=O)(=O)Nc1ccc(F)c(-n2cc(-c3cncnc3)c3nc(N(C)C4CCN(CC)CC4)ccc32)c1F [I-42] | 0.00084 | 
41 | CCCS(=O)(=O)Nc1ccc(F)c(-n2cc(-c3cncnc3)c3nc(N(C)C4CCN(CC5CC5)CC4)ncc32)c1F [I-43] | 0.005 | 
42 | [2H]C([2H])([2H])N(c1ccc2c(n1)c(-c1cncnc1)cn2-c1c(F)ccc(NS(=O)(=O)CCC)c1F)C1CCN(C([2H])([2H])C([2H])([2H])[2H])CC1 [I-44] | 0.001 | 
43 | CCCS(=O)(=O)Nc1ccc(F)c(-n2cc(-c3cncnc3)c3nc(N(C)C4CCN(CC(C)(C)O)CC4)ccc32)c1F [I-45] | 0.005 | 
44 | [2H]C([2H])([2H])C([2H])([2H])N1CCC(N(C)c2ccc3c(n2)c(-c2cncnc2)cn3-c2c(F)ccc(NS(=O)(=O)CCC)c2F)CC1 [I-46] | 0.003 | 
45 | CCCS(=O)(=O)Nc1ccc(F)c(-n2cc(-c3cncnc3)c3nc(N(C)C4CCN(CC)CC4)ccc32)c1Cl [I-47] | 0.002 | 
